Reference: paper PMC10604213, “Purification and Characterization of Polyphenol Oxidase in the Fruits of Opuntia ficus-indica” (Biology, 2023)
Each block holds one compound with its values, some of them ahead of it.

Experiments:
[1] = tested on: T1, polyphenol oxidase (PPO) from the fruits of Opuntia ficus-indica; assay: absorbance at […] nm, Lineweaver-Burk; type: biochemical; settings: 0.1 M phosphate buffer
T1 construct: native, from fruit flesh; few SDS-PAGE bands, two prominent: slightly below 35 kDa and slightly above 45 kDa

[2] = tested on: T1, polyphenol oxidase (PPO) from the fruits of Opuntia ficus-indica; assay: absorbance at […] nm, Lineweaver-Burk; type: biochemical; settings: pH 9.0, 20 °C, 0.1 M Tris-base buffer

- Km ([1]; pH 7.5, 30 °C): 5.38 mM
Structure (SMILES): Cc1ccc(O)c(O)c1 [4-methyl catechol]

Structure (SMILES): Oc1ccccc1O [catechol]
- Km ([1]; pH 7.5, 20 °C): 6.33 mM

- Km [2]: 16.7 mM
Structure (SMILES): Oc1cccc(O)c1O [pyrogallol]
